pKd: −log10 of the molar value. Values joined by “and” are separate entries in the source; they are usually repeats but may differ in a detail not shown here. Equal values may be shown once. Active and inactive are the calls of the source. The calls are words filed in the database; no cut-off is given here.
Key:
[1] = Toxicity in Syrian hamster infected with Leishmania infantum BCN150 promastigotes assessed as effect on ALT level at 20 mg/kg/day, po for 10 days measured after the last treatment; assay type: organism-based, Mesocricetus auratus; conditions: in vivo, 240 h
[2] = Toxicity in Syrian hamster infected with Leishmania infantum BCN150 promastigotes assessed as itching effect at 20 mg/kg/day, po for 10 days measured daily; assay type: organism-based, Mesocricetus auratus; conditions: in vivo, 240 h
Leishmania infantum [3] = assay: Antileishmanial activity against Leishmania infantum amastigotes infected in Syrian hamster assessed as parasite load within liver at 20 mg/kg/day, po for 10 days (reference value: 5333333.333 +/- 3011090.611/g); assay type: functional
[4] = Toxicity in Syrian hamster infected with Leishmania infantum BCN150 promastigotes assessed as nausea at 20 mg/kg/day, po for 10 days measured daily; assay type: organism-based, Mesocricetus auratus; conditions: in vivo, 240 h
[5] = Toxicity in Syrian hamster infected with Leishmania infantum BCN150 promastigotes assessed as liver weight at 20 mg/kg/day, po for 10 days (reference value: 5.874 +/- 0.414 g); assay type: organism-based, Mesocricetus auratus; conditions: in vivo, 240 h
Leishmania infantum [6] = assay: Antileishmanial activity against Leishmania infantum amastigotes infected in Syrian hamster assessed as parasite load within spleen at 20 mg/kg/day, po for 10 days (reference value: 9151063.431 +/- 2606154.975/g); assay type: functional
Leishmania donovani [7] = assay: Antileishmanial activity against Leishmania donovani BPK091 promastigotes transfected with Leishmania donovani BPK190 genomic cosmid DNA assessed as parasite growth at IC75 concentration incubated for 3 days under selective pressure and selection cycle repeated for 25 passages and measured at 43 to 78 days of selection relative to control; assay type: functional
[8] = Toxicity in Syrian hamster infected with Leishmania infantum BCN150 promastigotes assessed as spleen lesions at 20 mg/kg/day, po for 10 days; assay type: organism-based, Mesocricetus auratus; conditions: in vivo, 240 h
Leishmania infantum [9] = assay: Anti-leishmanial activity against Leishmania infantum BCN150 promastigotes infected in Syrian hamster assessed as decrease in anti-leishmanial IgG level at 40 mg/kg/day, po for 10 days formulated with 30 to 50 % v/v cyclodextrin by ELISA; assay type: functional, organism-based
[10] = Toxicity in Syrian hamster infected with Leishmania infantum BCN150 promastigotes assessed as liver lesions at 40 mg/kg/day, po for 10 days formulated with 30 to 50% v/v cyclodextrin measured under necropsy; assay type: organism-based, Mesocricetus auratus; conditions: in vivo, 240 h
[11] = Toxicity in Syrian hamster infected with Leishmania infantum BCN150 promastigotes assessed as effect on plasma creatinine level at 40 mg/kg/day, po for 10 days formulated with 30 to 50% v/v cyclodextrin measured after the last treatment; assay type: organism-based, Mesocricetus auratus; conditions: in vivo, 240 h
[12] = Stability of the compound in phosphate buffer assessed as compound lifetime at 450 nm at 5 uM measured at pH 8 by fluorescence emission spectrum analysis; assay type: physicochemical; conditions: pH 8, 0.45 µM
[13] = Toxicity in Syrian hamster infected with Leishmania infantum BCN150 promastigotes assessed as adverse effects at 20 mg/kg/every 12 hrs, po for 10 days formulated with 30% v/v cyclodextrin measured daily; assay type: organism-based, Mesocricetus auratus; conditions: in vivo
Leishmania infantum [14] = assay: Antileishmanial activity against Leishmania infantum amastigotes infected in Syrian hamster assessed as parasite load within spleen at 40 mg/kg/day, po for 10 days formulated with 8% v/v DMSO (reference value: 9151063.431 +/- 2606154.975/g); assay type: functional
Albumin [15] = target: T1, Albumin (Bos taurus, UniProt P02769); assay: Binding affinity to bovine serum albumin in phosphate buffer assessed as increase in emission anisotropy at 530 nm at 5 uM measured at pH 8 by fluorescence emission spectrum analysis; assay type: ADME; conditions: cattle, isolated protein
Leishmania infantum [16] = assay: Antileishmanial activity against Leishmania infantum amastigotes infected in Syrian hamster assessed as parasite load within liver at 40 mg/kg/day, po for 10 days formulated with 30% v/v cyclodextrin (reference value: 4333333.333 +/- 3444802.849 /g); assay type: functional
Leishmania donovani [17] = assay: Antileishmanial activity against antimony sensitive Leishmania donovani BPK091 promastigotes infected in C57BL/6 mouse bone marrow-derived macrophages assessed as reduction in parasite load at 10 uM treated with compound at 24 hrs post-infection measured after 72 hrs post infection by q-PCR analysis relative to control; assay type: functional
[18] = Toxicity in Syrian hamster infected with Leishmania infantum BCN150 promastigotes assessed as adverse effects at 20 mg/kg/every 12 hrs, po for 10 days formulated with 50% v/v cyclodextrin measured daily; assay type: organism-based, Mesocricetus auratus; conditions: in vivo
[19] = Chemical stability of compound in PBS assessed as decrease in absorbance at 60 uM at pH 7 to 8 and 25 degC measured within 20 mins under dark conditions by UV-vis spectrophotometry analysis; assay type: physicochemical; conditions: read-out: Drug degradation
[20] = Toxicity in Syrian hamster infected with Leishmania infantum BCN150 promastigotes assessed as spleen weight at 40 mg/kg/day, po for 10 days formulated with 8% v/v DMSO (reference value: 0.182 +/- 0.036 g); assay type: organism-based, Mesocricetus auratus; conditions: in vivo, 240 h
[21] = Selectivity index, ratio of CC50 for human THP1 cells to EC50 for Trypanosoma brucei bloodstream form; assay type: toxicity; conditions: read-out: Ratio CC50/EC50
[22] = Toxicity in Syrian hamster infected with Leishmania infantum BCN150 promastigotes assessed as liver weight at 40 mg/kg/day, po for 10 days formulated with 8% v/v DMSO (reference value: 5.874 +/- 0.414 g); assay type: organism-based, Mesocricetus auratus; conditions: in vivo, 240 h
Leishmania infantum [23] = assay: Antileishmanial activity against Leishmania infantum amastigotes infected in Syrian hamster assessed as reduction in parasite load at 40 mg/kg/day, po for 10 days formulated with 30% v/v cyclodextrin relative to control; assay type: functional; conditions: 240 h
Albumin [24] = target: T2, Albumin (Homo sapiens, UniProt P02768); assay: Binding affinity to human serum albumin in phosphate buffer assessed as decrease in emission intensity at 450 nm at 5 uM measured at pH 8 at albumin concentration of 0.6 +/-0.1 uM by fluorescence emission spectrum analysis; assay type: ADME; set-up: scale not given: the % may be the effect or the level left; conditions: isolated protein
Albumin [25] = target: T2, Albumin; assay: Binding affinity to human serum albumin by fluorescence based assay; assay type: ADME
Leishmania infantum [26] = assay: Antileishmanial activity against Leishmania infantum amastigotes infected in Syrian hamster assessed as parasite load within spleen at 40 mg/kg/day, po for 10 days formulated with 50% v/v cyclodextrin (reference value: 8508698.676 +/- 2835609.487/g); assay type: functional
[27] = Cmax in BALB/c mouse at 20 mg/kg, po measured upto 72 hrs by snapshot method; assay type: ADME, organism-based; set-up: dose 20 mg/kg, route oral; conditions: in vivo
[28] = Chemical stability of compound in PBS assessed as decrease in absorbance at 60 uM at pH 7 to 8 and 25 degC measured within 50 mins under dark conditions by UV-vis spectrophotometry analysis; assay type: physicochemical; conditions: read-out: Drug degradation
Albumin [29] = target: T1, Albumin; assay: Binding affinity to bovine serum albumin in phosphate buffer assessed as increase in emission intensity at 530-550 nm at 5 uM measured at pH 8 at albumin concentration of 12 uM by fluorescence emission spectrum analysis; assay type: ADME; conditions: cattle, isolated protein, pH 8, 5 µM
[30] = Chemical stability of compound in PBS assessed as decrease in absorbance at 20 uM at pH 8 measured after 2 mins nitrogen bubbling by UV-vis spectrophotometry analysis; assay type: physicochemical; conditions: read-out: Drug degradation
[31] = Half-life in BALB/c mouse at 1 mg/kg, iv measured upto 72 hrs by snapshot method; assay type: ADME, organism-based; conditions: in vivo
[32] = Toxicity in Syrian hamster infected with Leishmania infantum BCN150 promastigotes assessed as liver weight at 40 mg/kg/day, po for 10 days formulated with 30% v/v cyclodextrin (reference value: 5.102 +/- 0.729 g); assay type: organism-based, Mesocricetus auratus; conditions: in vivo, 240 h

T2 sequence (P02768 whole entry): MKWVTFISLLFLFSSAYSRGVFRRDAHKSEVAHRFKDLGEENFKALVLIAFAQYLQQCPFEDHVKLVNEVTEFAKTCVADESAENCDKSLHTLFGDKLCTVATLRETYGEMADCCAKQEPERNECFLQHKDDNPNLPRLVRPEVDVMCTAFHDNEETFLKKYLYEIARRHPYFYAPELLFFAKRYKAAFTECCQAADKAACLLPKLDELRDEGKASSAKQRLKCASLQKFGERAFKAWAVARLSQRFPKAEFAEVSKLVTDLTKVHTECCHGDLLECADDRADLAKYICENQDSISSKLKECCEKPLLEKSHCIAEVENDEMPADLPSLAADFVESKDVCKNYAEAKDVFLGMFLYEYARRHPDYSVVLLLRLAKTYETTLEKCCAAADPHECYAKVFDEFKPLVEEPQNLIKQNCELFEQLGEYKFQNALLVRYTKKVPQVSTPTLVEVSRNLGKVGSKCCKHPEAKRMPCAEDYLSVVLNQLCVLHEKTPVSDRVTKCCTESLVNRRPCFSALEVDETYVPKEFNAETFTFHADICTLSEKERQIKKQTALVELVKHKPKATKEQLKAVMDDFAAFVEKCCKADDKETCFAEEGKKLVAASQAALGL
T1 sequence (P02769 whole entry): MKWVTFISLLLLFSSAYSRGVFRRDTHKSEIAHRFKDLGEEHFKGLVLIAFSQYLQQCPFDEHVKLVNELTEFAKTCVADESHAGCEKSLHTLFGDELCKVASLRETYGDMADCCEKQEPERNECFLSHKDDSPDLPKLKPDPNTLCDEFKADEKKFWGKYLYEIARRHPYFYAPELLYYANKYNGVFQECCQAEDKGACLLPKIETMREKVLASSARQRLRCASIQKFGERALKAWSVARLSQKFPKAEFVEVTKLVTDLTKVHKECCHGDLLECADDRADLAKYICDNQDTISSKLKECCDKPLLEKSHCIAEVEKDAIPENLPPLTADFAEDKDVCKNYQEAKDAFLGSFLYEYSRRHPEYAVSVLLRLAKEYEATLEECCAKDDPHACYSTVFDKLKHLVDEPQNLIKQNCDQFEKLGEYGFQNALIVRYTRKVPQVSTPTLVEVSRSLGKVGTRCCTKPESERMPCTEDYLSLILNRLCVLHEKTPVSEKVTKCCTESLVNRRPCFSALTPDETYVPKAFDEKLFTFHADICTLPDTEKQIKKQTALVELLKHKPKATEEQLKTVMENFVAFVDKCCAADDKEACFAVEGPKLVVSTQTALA

Q: What does the source list for `CCCCCCCCCCCCCCCCOP(=O)([O-])OCC[N+](C)(C)C` [MILTEFOSINE]?
A: Activity [1]: Non-Toxic; Activity [2]: Toxic; Activity (Leishmania infantum [3]): 1000000 g⁻¹; Activity [4]: Toxic; Activity [5]: 5.996 g; Activity (Leishmania infantum [6]): 244476.109 g⁻¹; Activity (Leishmania donovani [7]): >75%; Activity [8]: Non-Toxic

Q: Which results are given for `COc1ccc2oc(-c3csc4ccccc34)c(O)c(=O)c2c1`?
A: inhibition (Leishmania infantum [9]): Active; Activity [10]: Non-Toxic; Activity [11]: Non-Toxic; Time [12]: 0.32 nanoseconds; Activity [13]: Non-Toxic; Activity (Leishmania infantum [14]): 6785423.957 g⁻¹; Activity (Albumin [15]): Active; Activity (Leishmania infantum [16]): 3428571.429 g⁻¹; inhibition at 10 µM (Leishmania donovani [17]): 69%; Activity [18]: Non-Toxic; degraded at 20 min, 60 µM [19]: 50%; Activity [20]: 0.19 g; selectivity ratio [21]: 33; Activity [22]: 5.444 g; inhibition in vivo at 40 mg/kg/day (Leishmania infantum [23]): 28.8%; Activity (Albumin [24]): 50%; pKd (Albumin [25]): > 5.00; Activity (Leishmania infantum [26]): 5465832.19 g⁻¹; Cmax [27]: 1.96 µM and 630 ng/mL; degraded at 50 min, 60 µM [28]: 80%; Activity (Albumin [29]): 50%; degraded at 2 min, 20 µM [30]: > 90%; half-life [31]: 63.2 h; Activity [32]: 5.448 g

Source: ChEMBL document CHEMBL4311972, “Discovery of a benzothiophene-flavonol halting miltefosine and antimonial drug resistance in Leishmania parasites through the application of medicinal chemistry, screening and genomics” (Eur J Med Chem, 2019)
